In patent US11753407B2, “Compounds for treating spinal muscular atrophy” (PTC Therapeutics, Inc., priority 2012, dated 2023):

Legend:
[1] = tested on: SMN2 minigene mRNA (SMN2-A minigene) in HEK293H cells; assay: SMN2 minigene mRNA splicing RT-qPCR assay in cultured cells; format: cell-based, human; conditions: for SMN2 minigene FL mRNA: HEK293H cells with SMN2 minigene, rising concentrations, 24 hr, relative to vehicle (FIG. 3); for EC (1.5-fold increase): Homo sapiens, HEK293-H, concentration increasing full length SMN2 mRNA 1.5-fold relative to vehicle-treated cells, HEK293H cells with SMN2-A minigene, 24 hours, 7-point concentration data, read-out: EC1.5x for production of full length SMN2 mRNA; for exon 7 inclusion: SMN2 minigene, relative to untreated cells (FIG. 3)
Outline: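 HEK293H cells stably carrying the SMN2-A minigene were treated for 24 h at 37 °C with a 7-point, 3.16-fold dilution series of compound. Multiplex RT-qPCR measured exon 7-containing minigene FL mRNA against GAPDH, expressed relative to vehicle by modified ΔΔCt; the EC1.5× is the concentration giving a 1.5-fold increase.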

[2] = Body weight of neonatal Δ7 SMA mice; format: in vivo; conditions: neonatal SMA Δ7 homozygous knockout mice
Experimental: The change in body weight of neonatal SMA mice is used to determine whether treatment with a test compound improves body weight.
Protocol. SMA Δ7 homozygous knockout mice are dosed intraperitoneally (IP) with test compound or vehicle (100% DMSO) QD from PND 3 until the dose regimen is switched to an oral dose BID in 0.5% hydroxypropylmethyl cellulose (HPMC) with 0.1% Tween-80 at a dose 3.16-fold higher than the dose used for IP. Body weights of SMA Δ7 mice treated with test compound or vehicle and age matched heterozygous mice are recorded every day.

## COc1ccc(-c2cc(=O)n3cc(N4CCNCC4)ccc3n2)cc1OC [Cpd 6, 2-(3,4-dimethoxyphenyl)-7-(piperazin-1-yl)-4H-pyrido[1,2-a]pyrimidin-4-one]
[1]
  SMN2 minigene FL mRNA: increased SMN2 minigene FL mRNA at low concentrations
  EC (1.5-fold increase): < 0.1 µM
  exon 7 inclusion: fully restored exon 7 inclusion
[2]; IP QD PND 3 to PND 30, then orally BID from PND 31 until study end (FIG. 13a)
  body weight: improved compared to vehicle treated mice

## Cc1cn2nc(-c3cc(=O)n4cc(N5CCN(C)CC5)ccc4n3)cc2c(C)n1 [Cpd 170, 2-(4,6-dimethylpyrazolo[1,5-a]pyrazin-2-yl)-7-(4-methylpiperazin-1-yl)-4H-pyrido[1,2-a]pyrimidin-4-one]
[1]
  SMN2 minigene FL mRNA: increased SMN2 minigene FL mRNA at low concentrations
  EC (1.5-fold increase): < 0.1 µM
  exon 7 inclusion: fully restored exon 7 inclusion
[2]; IP QD PND 3 to PND 23, then orally BID from PND 24 until study end (FIG. 13b)
  body weight: improved compared to vehicle treated mice
